The text below walks through data of article PMC6369240, “Biological evaluation and structure activity relationship of 9-methyl-1-phenyl-9H-pyrido[3,4-b]indole derivatives as anti-leishmanial agents” (Bioorganic Chemistry, 2019).

Data set [1] concerns L. donovani promastigotes. In words: L. donovani promastigote assay (Alamar blue). The data set is classed as cell-based, Leishmania donovani. To be noted: for S.I (CC50/IC50), L. donovani promastigote: HeLa CC50 / L. donovani promastigote EC50; for EC50: Leishmania donovani, 72 h, Alamar blue. As for the experimental part:
(§1) Anti-leishmanial activity of these analogues was determined by evaluating their inhibition activity against both promastigote, amastigote forms of Leishmania infantum and Leishmania donovani strains. […] Anti-leishmanial drugs miltefosine and pentamidine were used as standards for comparison purpose.
L. donovani promastigote inhibition potency of these reported β-carboline derivatives was determined by Alamar blue assay method.
(§2) L. donovanipromastigotes were cultured at 37 °C in M199 medium supplemented with 10% heat-inactivated fetal calf serum. L. infantum JPCM5 MCAN/ES/98/LLM-87 promastigotes were cultured at 26 °C in modified Eagle’s medium (HOMEM). Parasites were incubated with serial dilutions of compounds for 72 h, followed by Alamar blue-based assay as previously described.

Data set [2] concerns L. infantum JPCM5 MCAN/ES/98/LLM-87 promastigotes. Nature of the data set: L. infantum promastigote assay (Alamar blue). Type of data set: cell-based, Leishmania infantum. To be noted: for S.I (CC50/IC50), L. infantum promastigote: HeLa CC50 / L. infantum promastigote EC50; for EC50: 72 h, Alamar blue. As for the experimental part: as §1
Anti-promastigote activity of these reported β-carboline derivatives was determined by Alamar blue assay method.
as §2
Background: Alamar Blue is a resazurin reagent that responds to reducing activity.

For data set [3], the system named is L. infantum JPCM5 MCAN/ES/98/LLM-87 axenic amastigotes. In words: L. infantum axenic amastigote assay (Alamar blue). Type of data set: cell-based, Leishmania infantum. The following applies: for S.I (CC50/IC50), L. infantum axenic amastigote: HeLa CC50 / L. infantum axenic amastigote EC50; for EC50: Leishmania infantum, 72 h, Alamar blue. How it is done: Alamar blue assay method was used to determine inhibition potential of these β-carboline derivatives against (human life stage forms) axenic amastigotes.
(§3) L. donovaniLdBOB axenic amastigotes or L. infantum JPCM5 MCAN/ES/98/LLM-87 were cultured at 37 °C in modified Eagle’s medium (HOMEM; L. infantum) and axenic amastigotes were incubated for 72 h with compounds, followed by Alamar blue-based assay as previously described.

In data set [4] the test system is L. donovani LdBOB axenic amastigotes. Nature of the data set: L. donovani axenic amastigote assay (Alamar blue). The data set is classed as cell-based, Leishmania donovani. The following applies: for EC50: 72 h, Alamar blue; for S.I (CC50/IC50), L. donovani axenic amastigote: HeLa CC50 / L. donovani axenic amastigote EC50. As for the experimental part:
as §3

Data set [5] can be described thus: HeLa cell cytotoxicity, Alamar blue assay. Type of data set: cell-based. To be noted: human; HeLa cells, ~65 h incubation plus 5 h Alamar Blue. As for the experimental part: HeLa cell cytotoxicity studies were carried out as described previously. Briefly, the cells were cultured in DMEM supplemented with 10% fetal calf serum and 2 mM L-glutamine. Cells were plated at initial cell concentration of 2 × 10^4 cells/well and incubated with the compounds for ∼65 h prior to addition of Alamar Blue solution for further 5 h.

Data set [6] has as its system L. donovani LdBOB intracellular amastigotes in PMA differentiated THP-1 cells. In words: Intra macrophage L. donovani (amastigote) assay in THP-1 cells. The following applies: for S.I (CC50/IC50), L. donovani intracellular amastigote: HeLa CC50 / L. donovani intracellular amastigote EC50; for EC50: THP-1 macrophages, 72 h, microscopy readout. Type of data set: cell-based, Leishmania donovani. As for the experimental part: Although, axenic amastigotes assay most commonly used to screen new leishmanial agents are different from intracellular amastigotes in terms of protein expression and drug susceptibility. […] THP-1 (human monocytic leukemia) cells were a kind gift from Dr Susan Wylie (Dundee) and maintained in minimal essential medium plus 10% (vol/vol) FBS. […] Briefly, THP-1 cells (20,000 per well, 200 μL) were plated into 96 well plates in presence of 10 nM PMA and incubated at 37 °C in 5% CO2 atmosphere for 75 h. […] Any remaining extracellular amastigotes were removed and the adhered cells were washed with the same supplemented PBS solution as above. Pre-aliquoted compounds in a serial dilution were added from another plate, such that the total well volume was 200 μL and incubated for further 72 h. Cells were fixed with 100% methanol, stained with Giemsa and examined microscopically.

The conditions of data set [7]: introduction statement; cited from earlier work.
[8] abbreviates: Leishmania donovani, THP-1, 72 h.

On to `COc1ccc(N2CCN(C(=O)c3cc4c5ccccc5n(C)c4c(-c4ccccc4)n3)CC2)cc1` [7d, (4-(4-methoxyphenyl)piperazin-1-yl)(9-methyl-1-phenyl-9H-pyrido[3,4-b]indol-3-yl)methanone], for which the melting point (as a rule, the temperature, or range, at which the solid turns liquid) was in the range of 170 to 172 °C. In data set [1], the “S.I (CC50/IC50), L. donovani promastigote” value was >549.5 and the EC50 – broadly, the midpoint of the concentration-response curve – is 0.91 ± 0.09 µM. Besides, the “S.I (CC50/IC50), L. infantum promastigote” value in data set [2] was >314.5. Also, in data set [3], the “S.I (CC50/IC50), L. infantum axenic amastigote” value is given as >357.1 and the EC50 was 1.4 ± 0.1 µM. Also, in data set [4], it took 0.9 ± 0.1 µM to reach a half-maximal effect (EC50) and the “S.I (CC50/IC50), L. donovani axenic amastigote” value was 555.6. The same compound gave an EC50 in data set [4] (Leishmania donovani) of 0.91 µM. The CC50 (usually the concentration that lowers cell viability or growth by half) in data set [5] is > 500 µM. Besides, in data set [6], the “S.I (CC50/IC50), L. donovani intracellular amastigote” value came to 384.6 and the EC50 came out at 1.3 ± 0.1 µM. In addition, the response in data set [6] (setting [8]) was half-maximal at 1.4 µM (EC50).
As to `COc1ccccc1N1CCN(C(=O)c2cc3c4ccccc4n(C)c3c(-c3ccccc3)n2)CC1` [7f, (4-(2-methoxyphenyl)piperazin-1-yl)(9-methyl-1-phenyl-9H-pyrido[3,4-b]indol-3-yl)methanone], the melting point lay within 168 to 170 °C. For the same compound, in data set [1], the “S.I (CC50/IC50), L. donovani promastigote” value is given as >59.4 and the response was half-maximal at 8.42 ± 0.45 µM (EC50). For the same compound, the “S.I (CC50/IC50), L. infantum promastigote” value in data set [2] is >36.2. For the same compound, the response in data set [2] (Leishmania infantum) was half-maximal at 13.8 ± 0.9 µM (EC50). Moreover, in data set [3], the “S.I (CC50/IC50), L. infantum axenic amastigote” value is listed as >32.7 and a half-maximal response (EC50) required 15.3 ± 1.1 µM. Moreover, the “S.I (CC50/IC50), L. donovani axenic amastigote” value in data set [4] turned out to be 78.1. The same compound yielded an EC50 in data set [4] (Leishmania donovani) of 6.4 ± 0.2 µM. Besides, the CC50 in data set [5] was > 500 µM. Also, the “S.I (CC50/IC50), L. donovani intracellular amastigote” value in data set [6] is listed as 42.4. The compound further registered a concentration giving a half-maximal response (EC50) in data set [6] (setting [8]) of 11.8 ± 0.7 µM.
For `Cn1c2ccccc2c2cc(C(=O)N3CCN(c4ccc(Cl)cc4)CC3)nc(-c3ccccc3)c21` [7g, (4-(4-chlorophenyl)piperazin-1-yl)(9-methyl-1-phenyl-9H-pyrido[3,4-b]indol-3-yl)methanone], the melting point lay within 160 to 162 °C. Further, in data set [1], the “S.I (CC50/IC50), L. donovani promastigote” value is given as >99.6 and the EC50 was 5.02 ± 0.36 µM. The “S.I (CC50/IC50), L. infantum promastigote” value in data set [2] is >340.1. In data set [2] (Leishmania infantum), this compound yielded an EC50 of 1.47 ± 0.32 µM. Moreover, in data set [3], the “S.I (CC50/IC50), L. infantum axenic amastigote” value is reported as >263.2 and a half-maximal response (EC50) required 1.9 ± 0.2 µM. Moreover, in data set [4], the “S.I (CC50/IC50), L. donovani axenic amastigote” value is 131.6. Also, the EC50 in data set [4] (Leishmania donovani) was 3.8 ± 0.5 µM. The CC50 in data set [5] is > 500 µM. For the same compound, the “S.I (CC50/IC50), L. donovani intracellular amastigote” value in data set [6] worked out at 79.4. Besides, a half-maximal response in data set [6] (setting [8]) (EC50) required 6.3 ± 0.3 µM.
`Cn1c2ccccc2c2cc(C(=O)N3CCN(c4ccc([N+](=O)[O-])cc4)CC3)nc(-c3ccccc3)c21` [7j, (9-methyl-1-phenyl-9H-pyrido[3,4-b]indol-3-yl)(4-(4-nitrophenyl)piperazin-1-yl)methanone]: the melting point was in the range of 200 to 202 °C. In data set [1], the “S.I (CC50/IC50), L. donovani promastigote” value is listed as >38.2 and the midpoint of the response, the EC50, lay at 13.1 ± 1.5 µM. The “S.I (CC50/IC50), L. infantum promastigote” value in data set [2] is >25.3. Moreover, the EC50 in data set [2] (Leishmania infantum) amounted to 19.7 ± 1.7 µM. Further, in data set [3], the “S.I (CC50/IC50), L. infantum axenic amastigote” value was >34.2 and the EC50 was found to be 14.6 ± 2.9 µM. Also, the “S.I (CC50/IC50), L. donovani axenic amastigote” value in data set [4] is given as 66.7. Also, in data set [4] (Leishmania donovani), the response was half-maximal at 7.5 ± 0.4 µM (EC50). In addition, the CC50 in data set [5] was > 500 µM. Moreover, the “S.I (CC50/IC50), L. donovani intracellular amastigote” value in data set [6] is listed as 32.5. In addition, in data set [6] (setting [8]), the EC50 came to 15.4 ± 0.9 µM.
In turn, `Cn1c2ccccc2c2cc(C(=O)N3CCN(c4ccc(F)cc4)CC3)nc(-c3ccccc3)c21` [7k, (4-(4-fluorophenyl)piperazin-1-yl)(9-methyl-1-phenyl-9H-pyrido[3,4-b]indol-3-yl)methanone] came in with a melting point of 188 to 190 °C. Also, in data set [1], the “S.I (CC50/IC50), L. donovani promastigote” value was >40.3 and the midpoint of the response, the EC50, lay at 12.4 ± 1.4 µM. The “S.I (CC50/IC50), L. infantum promastigote” value in data set [2] is recorded as >29.1. The same compound displayed an EC50 in data set [2] (Leishmania infantum) of 17.2 ± 0.82 µM. Besides, in data set [3], the “S.I (CC50/IC50), L. infantum axenic amastigote” value is given as >33.3 and the EC50 amounted to 15 ± 1.3 µM. Also, the “S.I (CC50/IC50), L. donovani axenic amastigote” value in data set [4] was found to be 53.8. The compound also yielded an EC50 in data set [4] (Leishmania donovani) of 9.3 ± 0.5 µM. For the same compound, in data set [5], the CC50 was > 500 µM. In addition, the “S.I (CC50/IC50), L. donovani intracellular amastigote” value in data set [6] is given as 49.5. Moreover, the EC50 in data set [6] (setting [8]) was found to be 10.1 ± 1.1 µM.
Take `CCCCCCCCCCCCCCCCOP(=O)([O-])OCC[N+](C)(C)C` [Miltefosine, reference compound]: the EC50 came to 3.12 ± 0.16 µM in data set [1]; 12.6 ± 1.1 µM in data set [2]; 12.4 µM in data set [2] (Leishmania infantum); 4.8 ± 0.8 µM in data set [3]; 2.8 ± 0.4 µM in data set [4] (Leishmania donovani); 6.4 ± 0.3 µM in data set [6] (setting [8]). For the same compound, the half-life (in general, the time needed for the level to fall by half in the phase considered) in data set [7] is listed as 150 h.
